Consider 1 molecule from patent US20240139213A1 (priority 2017, published 2024).

The test system of this experiment is Subjects with a variety of atopic conditions. Format: in vivo, human. Also on record: key: a score of 1 was given if symptoms worsened; a score of 2 was given if there was no change in symptoms; a score of 3 was given if there was some improvement in symptoms; a score of 4 was given if there were marked improvement in symptoms. Particulars: Subject D; eosinophilic esophagitis and GERD; Vitamin D3 4000 IU for 9 months without a probiotic compound.

Structures are written as SMILES.

For the molecule `C=C1CC[C@H](O)C/C1=C/C=C1\CCC[C@]2(C)[C@@H]([C@H](C)CCCC(C)C)CC[C@@H]12` [Vitamin D3], the “score on 4 point scale” value is given as 2.
